The source of these data is US20250026741A1, “INHIBITORS OF THE ONCOGENIC SHP2 PHOSPHATASE AND USES THEREOF” (Sanford Burnham Prebys Medical Discovery Institute, priority 2021, published 2025).

SMILES strings stand for the structures.

The target of one assay is SHP2cat (Homo sapiens (Human), UniProt Q06124). Briefly: Protein thermal shift (PTS) assay. The assay is classed as binding. The settings on record: vs vehicle (DMSO) control. An excerpt:
We confirmed specific and dose-dependent binding of inhibitors to SHP2 by protein thermal shift, which monitors the thermal stability of a target protein in vitro. […] In addition, we confirmed the inhibitory activity of several furanylbenzamide inhibitors, including the top two compounds #02 and #01, in SHP2cat inhibition assays using the alternative substrate 3-O-methylfluorescein phosphate (OMFP), which features a peak fluorescence emission that is red-shifted by […] compared to DiFMUP. The Km value of OMFP for SHP2cat was determined to be 50 μM. An OMFP fluorescence intensity-based assay was used to perform inhibitor dose-response experiments and determine IC50 values.
Differential scanning fluorimetry (also known as protein thermal shift) measurements of SHP2cat were performed. #02 was spotted at different concentrations into MicroAmp®384-well real-time PCR plates (#4483285, Applied Biosystems, Waltham, MA) using an Echo 555 Liquid Handler. […] Plates were analyzed using a ViiA® 7 Real-Time PCR instrument (Applied Biosystems, Waltham, MA) and a 12 min temperature gradient with a temperature increase of 0.075° C./s. The melting temperature and thermal profiles were determined using Protein Thermal Shift™ Software v1.3 (Applied Biosystems, Waltham, MA).

In assay [1] the test system is MOLM-13 AML cells (expressing WT SHP2). The assay can be described thus: Cell viability assay (CellTiter-Glo), MOLM-13. It is filed as cell-based. The following applies: Homo sapiens, MOLM-13, 72 h, regular MOLM-13 cells, CRISPR comparison experiment. Here is the method: Next, we performed an 11-day colony formation assay with TNBC cells treated with #02 or SHP099 at 5, 10, or 20 μM (FIG. 3D).
Finally, we evaluated the selectivity of our top two compounds, #01 and #02, on MOLM-13 AML cells in which SHP2 was depleted using CRISPR-Cas9 knock-out (KO). High-efficiency Cas9-editing MOLM-13 cells were generated by transducingMOLM-13 cells with a Cas9 lentiviral construct. Stable clones were tested for editing efficiency by performing TIDE analysis (45), and these MOLM13-Cas9 cells were transduced with a lentiviral construct containing an AAVS1 single guide RNA (sgRNA) and an mCherry reporter for bulk-sorting of cells with successful AAVS1 editing. […] Cells were treated with inhibitors at various concentrations (ranging from […] to 58 nM) or vehicle control (DMSO) for 72 h, before cell viability was assessed.
Viability of AML, esophageal carcinoma, and TF-1 cells was assessed using the ATP-depletion assay CellTiter-Glo® (Promega). Cells were harvested at 1×10^6/mL to 2×10^6 cells/mL with cell numbers determined by trypan blue using the Countess Cell counter (Thermo Scientific) and resuspended in culture media. […] Luminescence was read on a Tecan Spark® Multimode Microplate Reader and data analyzed using Graph Pad Prism software. […]
(Cellular ATP, detected with luciferase, serves as a proxy for viable cell number.)

Sequence of SHP2cat (Q06124 248-527): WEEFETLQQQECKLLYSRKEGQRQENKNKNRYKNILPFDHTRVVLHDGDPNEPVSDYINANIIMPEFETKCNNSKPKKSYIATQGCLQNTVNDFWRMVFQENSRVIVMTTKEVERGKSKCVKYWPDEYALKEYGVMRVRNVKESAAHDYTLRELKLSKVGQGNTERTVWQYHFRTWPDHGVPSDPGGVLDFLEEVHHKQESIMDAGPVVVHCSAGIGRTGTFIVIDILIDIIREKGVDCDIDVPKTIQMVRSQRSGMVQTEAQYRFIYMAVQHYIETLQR

For `O=C(Nc1ccccc1)c1cc(-c2ccc(/C=C3\Sc4ccccc4C3=O)o2)ccc1O` [#02, (Z)-2-hydroxy-5-(5-((3-oxobenzo[b]thiophen-2(3H)-ylidene)methyl)furan-2-yl)-N-phenylbenzamide], on SHP2cat, the “change of SHP2cat melting temperature (Tm)” value was “dose-dependently increased the melting temperature”. The same compound came in with a 50% inhibitory concentration (IC50) in assay [1] of 15 µM.

By IC50 is commonly meant the concentration that gives 50% inhibition.
